Patent publication US6410054B1, “Immediate release eplerenone compositions” (G. D. Searle & Co., priority 1998, dated 2002)

Assays:
Assay type in all cases: in vivo, humans
[1] = Effect of food study: plasma pharmacokinetics fasted vs high-fat breakfast; details: for Plasma Concentration: 100 mg eplerenone capsule
Protocol: An open-label randomized, cross-over study was employed to evaluate the pharmacokinetic profiles of eplerenone under fasted and fed conditions, and the safety and tolerability of eplerenone. Safety was assessed based on adverse events, vital signs and clinical laboratory tests. Twelve healthy male subjects were randomized to receive a single 100 mg dose of eplerenone on days 1 and 8 under (i) fasted conditions, or (ii) immediately following a high-fat breakfast. The subjects were orally administered (dosed) a single 100 mg dose of eplerenone in the form of the capsule described in Example 7, together with approximately 200 to 240 mL of water at 0800 hours on days 1 and 8. Subjects randomized to receive a high-fat breakfast were to completely ingest the meal within 20 minutes prior to dosing. The high-fat meal contained approximately 33 g protein, 75 g fat, 58 g carbohydrates and 1000 calories. […] All adverse events were mild in severity.

[2] = Multiple dose study: plasma pharmacokinetics and urinary excretion
Protocol: Multiple oral dose tolerability and the pharmacokinetics of several dosages of eplerenone were evaluated in a double-blind, randomized, placebo-controlled, rising oral dose, sequential panel study of 40 healthy male subjects (five groups of eight subjects). The study medication was administered in […] sequential dose panels, with each panel including eplerenone, spironolactone and placebo. […] The 100 mg and 200 mg dose capsules corresponded to those described in Examples 7 and 8, respectively. Following a 48-hour interval, the study drug was administered once a day for 11 days. Antialdosterone activity was determined following a fludrocortisone challenge on Days 12-13.

[3] = ADME study of [14C]eplerenone oral solution: excretion in urine, feces, breath; details: 100 mg [14C]eplerenone oral solution, mean
Protocol: An open-label, single dose study was employed to evaluate the absorption, distribution, metabolism and elimination profile of a single 100 mg dose of an oral solution of eplerenone.
The study employed eight healthy male humans. Each subject received a single 100 mg oral dose of a solution of [^14C]eplerenone (specific activity 0.75 μCi/mg). Plasma, saliva, breath, urine and fecal samples were collected at predetermined intervals and analyzed for sample radioactivity and the concentration of eplerenone and its open lactone ring form. Safety was determined on the basis of laboratory tests, vital signs, and the occurrence and types of adverse events.
The subjects, who underwent an overnight food fast prior to administration of the dose, received at 0800 hours a single 100 mg oral dose of an aqueous oral solution of radiolabeled eplerenone reconstituted in 80 mL of an apple juice/hydroxypropyl-β-cyclodextrin mixture. The subjects swallowed about 200 mL of water one, two and three hours post dosing.
Blood samples were collected at −0.5 (predose), 0.5, 1, 1.5, 2, 2.5, 3, 4, 6, 8, 12, 16, 24, 36, 48, 72 and 96 hours post dose. […] Individual fecal samples were collected beginning immediately after dosing and continuing through 0800 hours on day 8. In addition, one predose fecal sample was provided. Saliva samples were taken at 0.5 hour predose and at 0.5, 1, 2, 4, 6, 12, and 24 hours postdose. Breath samples were taken at 0.5 hour predose and at 1, 2, 3, 4, 6, 8, 12, 24, 36, 48 and 72 hours postdose.

## COC(=O)C1CC2=CC(=O)CCC2(C)C23OC2CC2(C)C(CCC2(O)CCC(=O)O)C13 (stereo not drawn) [Open Ring Lactone]
[1]; 100 mg capsule, fed vs fasted
  effect of high-fat meal on AUC0-96: minimal or no measurable effect
  effect of high-fat meal on Cmax: reduction
  effect of high-fat meal on Tmax: increase
  effect of high-fat meal on T½: minimal or no measurable effect
[1]; Fasted Conditions, 0.5 hours after dosing
  Plasma Concentration: 69.163 ng/mL
[1]; Fasted Conditions, 1.0 hours after dosing
  Plasma Concentration: 91.208 ng/mL
[1]; Fasted Conditions, 2.0 hours after dosing
  Plasma Concentration: 70.600 ng/mL
[1]; Fasted Conditions, 3.0 hours after dosing
  Plasma Concentration: 58.833 ng/mL
[1]; Fasted Conditions, 4.0 hours after dosing
  Plasma Concentration: 45.042 ng/mL
[1]; Fasted Conditions, 6.0 hours after dosing
  Plasma Concentration: 31.773 ng/mL
[1]; Fasted Conditions, 8.0 hours after dosing
  Plasma Concentration: 18.708 ng/mL
[1]; Fasted Conditions, 28.0 hours after dosing
  Plasma Concentration: 0 ng/mL
[1]; Fasted Conditions, 48.0 hours after dosing
  Plasma Concentration: 0 ng/mL
[1]; Fasted Conditions, 72.0 hours after dosing
  Plasma Concentration: 0 ng/mL
[1]; Fasted Conditions, −0.5 hours after dosing
  Plasma Concentration: 0 ng/mL
[1]; High Fat Breakfast, 0.5 hours after dosing
  Plasma Concentration: 2.300 ng/mL
[1]; High Fat Breakfast, 1.0 hours after dosing
  Plasma Concentration: 17.392 ng/mL
[1]; High Fat Breakfast, 2.0 hours after dosing
  Plasma Concentration: 36.964 ng/mL
[1]; High Fat Breakfast, 3.0 hours after dosing
  Plasma Concentration: 56.742 ng/mL
[1]; High Fat Breakfast, 4.0 hours after dosing
  Plasma Concentration: 66.817 ng/mL
[1]; High Fat Breakfast, 6.0 hours after dosing
  Plasma Concentration: 51.675 ng/mL
[1]; High Fat Breakfast, 8.0 hours after dosing
  Plasma Concentration: 30.950 ng/mL
[1]; High Fat Breakfast, 28.0 hours after dosing
  Plasma Concentration: 0 ng/mL
[1]; High Fat Breakfast, 48.0 hours after dosing
  Plasma Concentration: 0 ng/mL
[1]; High Fat Breakfast, 72.0 hours after dosing
  Plasma Concentration: 0 ng/mL
[1]; High Fat Breakfast, −0.5 hours after dosing
  Plasma Concentration: 0 ng/mL
[2]; 100 mg to 1000 mg, single or multiple doses
  dose proportionality of plasma concentrations and dose-adjusted AUC: consistent with dose proportionality
[2]; once a day for 11 days
  accumulation: no significant or dose-related accumulation
[3]
  dose excreted in feces as the named form: 2.46%
  dose excreted in urine as the named form: 4.98%
